Test results: US20180028680A1, “GLYCOOPTIMIZED ANTIBODY DRUG CONJUGATES” (GLYCOTOPE GMBH, priority 2015, published 2018)

System: SK-BR-3 cells
Test: Inhibition of proliferation, MTT assay
Assay type: cell-based, human
Details: 20 nM, positive control
Experimental: The MTT assay is a non-radioactive assay based on the cleavage of the soluble yellow tetrazolium salt MTT (3-[4,5-Dimethylthiazol-2-yl]-2,5-diphenyltetrazolium bromide; Thiazolyl Blue) by mitochondrial dehydrogenases of viable cells. […] The absorbance signal is a direct measure for viable cells in the culture.
Human IgG1 or medium alone served as negative controls. Briefly, SK-BR-3 cells were grown for 2 days in 96-well flat bottom plates. […] The supernatant was completely removed and MTT was added. Cells were incubated for 2 hours with MTT at 37° C. in a humidified CO2 incubator. The supernatant was removed and cells were lysed using HCI and 2-propanol containing lysis buffer for 1 h at room temperature in the dark. Absorbance at 570 nm/630 nm was measured in a plate reader Infinite F200 (Tecan Austria GmbH).
Proliferation after 4 days of incubation with the antibodies was calculated relative to the proliferation in the medium control.

CC(=O)O[C@H]1C(=O)[C@@]2(C)[C@H]([C@H](OC(=O)c3ccccc3)[C@]3(O)C[C@H](OC(=O)[C@H](O)[C@@H](NC(=O)c4ccccc4)c4ccccc4)C(C)=C1C3(C)C)[C@]1(OC(C)=O)CO[C@@H]1C[C@@H]2O [Taxol]
proliferation compared to the medium control: 6%
